Data published in ChEMBL document CHEMBL4354854, “DNA-Encoded Library Technology-Based Discovery, Lead Optimization, and Prodrug Strategy toward Structurally Unique Indoleamine 2,3-Dioxygenase-1 (IDO1) Inhibitors” (J Med Chem, 2020).
≈ marks a conversion by molar mass, not a printed value. Calls of active or inactive are those of the source. The rule behind the calls is not given here.

Tests used:
[1] = Cytotoxicity against human PBMC cells assessed as reduction in cell viability measured after 48 hrs by Celltiter-glo luminescence assay; type: cell-based
[2] = target: T1, Indoleamine 2,3-dioxygenase 1 (Homo sapiens, UniProt P14902)
Target sequence in this assay (P14902 whole entry): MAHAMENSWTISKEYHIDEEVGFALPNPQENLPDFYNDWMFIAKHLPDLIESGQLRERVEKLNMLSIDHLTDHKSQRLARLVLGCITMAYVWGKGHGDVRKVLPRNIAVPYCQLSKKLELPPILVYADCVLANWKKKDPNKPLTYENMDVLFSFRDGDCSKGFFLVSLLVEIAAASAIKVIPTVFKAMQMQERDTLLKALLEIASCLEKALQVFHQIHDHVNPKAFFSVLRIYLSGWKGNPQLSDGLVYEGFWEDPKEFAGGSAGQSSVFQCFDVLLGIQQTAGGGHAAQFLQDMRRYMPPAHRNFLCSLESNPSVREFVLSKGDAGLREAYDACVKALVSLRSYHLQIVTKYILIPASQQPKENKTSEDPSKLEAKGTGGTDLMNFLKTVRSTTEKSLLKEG
Description: Inhibition of IDO1 in IFN-gamma/LPS stimulated human PBMC assessed as reduction in kynurenine production after 48 hrs by RapidFire MS assay

[3] = Clearance in mouse; type: ADME, organism-based; details: in vivo
[4] = Oral bioavailability in Han Wistar rat assessed as (S)-Ethyl 6-Bromo-4-(1H-indazole-7-carboxamido)spiro-[chroman-2,4'-piperidine]-1'-carboxylate level at 25 mg/kg equiv of parent compound administered via gavage using amorphous compound by LC-MS/MS analysis; type: ADME, organism-based; details: in vivo
[5] = Oral bioavailability in Han Wistar rat assessed as (S)-Ethyl 6-Bromo-4-(1H-indazole-7-carboxamido)spiro-[chroman-2,4'-piperidine]-1'-carboxylate level at 82 mg/kg equiv of parent compound administered via gavage using amorphous compound by LC-MS/MS analysis; type: ADME, organism-based; details: in vivo
[6] = Solubility of the compound in fasted state simulated intestinal fluid using amorphous compound; type: physicochemical
[7] = Oral bioavailability in Han Wistar rat assessed as (S)-Ethyl 6-Bromo-4-(1H-indazole-7-carboxamido)spiro-[chroman-2,4'-piperidine]-1'-carboxylate level at 4 mg/kg equiv of parent compound administered via gavage using amorphous compound by LC-MS/MS analysis; type: ADME, organism-based; details: in vivo
[8] = target: T1, Indoleamine 2,3-dioxygenase 1; experiment: Binding affinity to IDO1 holoenzyme (unknown origin) assessed as red shift in soret band at 10 uM measured after 2 hrs by UV-vis spectra analysis
Target sequence in this assay (P14902 whole entry, looked up): as the sequence (P14902 whole entry) above

[9] = Oral bioavailability in Beagle dog assessed as (S)-Ethyl 6-Bromo-4-(1H-indazole-7-carboxamido)spiro-[chroman-2,4'-piperidine]-1'-carboxylate level at 30 mg/kg equiv of parent compound administered via gavage using crystalline compound by LC-MS/MS analysis; type: ADME, organism-based, Canis lupus familiaris; details: in vivo
[10] = Mutagenicity in Salmonella typhimurium in absence of S9 fraction by Ames test; type: toxicity; details: salmonella enterica subsp. enterica serovar typhimurium
[11] = Mutagenicity in Salmonella typhimurium in presence of S9 fraction by Ames test; details: salmonella enterica subsp. enterica serovar typhimurium
[12] = AUC (0 to t) in Beagle dog assessed as (S)-Ethyl 6-Bromo-4-(1H-indazole-7-carboxamido)spiro-[chroman-2,4'-piperidine]-1'-carboxylate level at 30 mg/kg equiv of parent compound administered via oral gavage using crystalline compound by LC-MS/MS analysis; type: ADME, organism-based, Canis lupus familiaris; details: in vivo
[13] = Oral bioavailability in Beagle dog assessed as (S)-Ethyl 6-Bromo-4-(1H-indazole-7-carboxamido)spiro-[chroman-2,4'-piperidine]-1'-carboxylate level at 89 mg/kg equiv of parent compound administered via gavage using crystalline compound by LC-MS/MS analysis; type: ADME, organism-based, Canis lupus familiaris; details: in vivo
Homo sapiens = experiment: In vivo inhibition of IDO1 in human at 60 mg, po bid measured after 24 hrs relative to control; type: functional
[14] = Oral bioavailability in Beagle dog assessed as (S)-Ethyl 6-Bromo-4-(1H-indazole-7-carboxamido)spiro-[chroman-2,4'-piperidine]-1'-carboxylate level at 3 mg/kg equiv of parent compound administered via gavage using crystalline compound by LC-MS/MS analysis; type: ADME, organism-based, Canis lupus familiaris; details: in vivo
[15] = Oral bioavailability in CD-1 mouse assessed as (S)-Ethyl 6-Bromo-4-(1H-indazole-7-carboxamido)spiro-[chroman-2,4'-piperidine]-1'-carboxylate level at 3 mg/kg equiv of parent compound administered via gavage using crystalline compound by LC-MS/MS analysis; type: ADME, organism-based; details: in vivo
[16] = Solubility of the compound in fasted state simulated intestinal fluid using crystalline compound; type: physicochemical
[17] = Oral bioavailability in CD-1 mouse assessed as (S)-Ethyl 6-Bromo-4-(1H-indazole-7-carboxamido)spiro-[chroman-2,4'-piperidine]-1'-carboxylate level at 89 mg/kg equiv of parent compound administered via gavage using crystalline compound by LC-MS/MS analysis; type: ADME, organism-based; details: in vivo
[18] = Oral bioavailability in CD-1 mouse assessed as (S)-Ethyl 6-Bromo-4-(1H-indazole-7-carboxamido)spiro-[chroman-2,4'-piperidine]-1'-carboxylate level at 267 mg/kg equiv of parent compound administered via gavage using crystalline compound by LC-MS/MS analysis; type: ADME, organism-based; details: in vivo
[19] = Oral bioavailability in CD-1 mouse assessed as (S)-Ethyl 6-Bromo-4-(1H-indazole-7-carboxamido)spiro-[chroman-2,4'-piperidine]-1'-carboxylate level at 30 mg/kg equiv of parent compound administered via gavage using crystalline compound by LC-MS/MS analysis; type: ADME, organism-based; details: in vivo
[20] = Oral bioavailability in Han Wistar rat at 100 mg/kg administered via gavage using crystalline compound by LC-MS/MS analysis; type: ADME, organism-based; details: in vivo
[21] = Oral bioavailability in Han Wistar rat at 5 mg/kg administered via gavage using crystalline compound by LC-MS/MS analysis; type: ADME, organism-based; details: in vivo
[22] = Clearance in monkey relative to hepatic blood flow; type: ADME, Macaca mulatta; details: rhesus monkey, in vivo
[23] = Clearance in rat; type: ADME; details: in vivo
[24] = Oral bioavailability in Han Wistar rat at 30 mg/kg administered via gavage using crystalline compound by LC-MS/MS analysis; type: ADME, organism-based; details: in vivo
[25] = AUC (0 to t) in Beagle dog at 30 mg/kg, po administered via gavage using crystalline compound by LC-MS/MS analysis; type: ADME, organism-based, Canis lupus familiaris; details: in vivo
[26] = Clearance in mouse relative to hepatic blood flow; type: ADME; details: in vivo
[27] = Clearance in monkey; type: ADME, Macaca mulatta; details: rhesus monkey, in vivo
[28] = Oral bioavailability in Beagle dog at 30 mg/kg administered via gavage using crystalline compound by LC-MS/MS analysis; type: ADME, organism-based, Canis lupus familiaris; details: in vivo
[29] = Oral bioavailability in Beagle dog at 5 mg/kg administered via gavage using crystalline compound by LC-MS/MS analysis; type: ADME, organism-based, Canis lupus familiaris; details: in vivo
[30] = Clearance in rat relative to hepatic blood flow; type: ADME; details: in vivo

COC(=O)N1CCC2(CC1)C[C@H](NC(=O)c1cccc3cn[nH]c13)c1cc(Br)ccc1O2
CC50 at 48 h [1]: 6.31 µM | IC50 [2]: 0.0043 µM

CCOC(=O)N1CCC2(CC1)C[C@H](NC(=O)c1cccc3cn[nH]c13)c1cc(C(=O)OC)ccc1O2
CC50 at 48 h [1]: > 10 µM

CCOC(=O)N1CCC2(CC1)C[C@H](NC(=O)c1cccc3cn[nH]c13)c1cc(C(=O)O)ccc1O2
CC50 at 48 h [1]: > 10 µM

CCCOC(=O)N1CCC2(CC1)C[C@H](NC(=O)c1cccc3cn[nH]c13)c1cc(Br)ccc1O2
CC50 at 48 h [1]: > 10 µM

CCOC(=O)N1CCC2(CC1)C[C@@H](NC(=O)c1cccc3cn[nH]c13)c1ccccc1O2
CC50 at 48 h [1]: > 10 µM

CCOC(=O)N1CCC2(CC1)C[C@H](NC(=O)c1ccccc1OC)c1cc(Br)ccc1O2
CC50 at 48 h [1]: > 10 µM

CCOC(=O)N1CCC2(CC1)C[C@H](NC(=O)c1cccc3cn[nH]c13)c1cc(CC)ccc1O2
CC50 at 48 h [1]: > 10 µM

CC(C)(C)OC(=O)N1CCC2(CC1)CC(NC(=O)c1cccc3cc[nH]c13)c1ccccc1O2 (racemic)
clearance [3]: 55 mL/min/kg | CC50 at 48 h [1]: 5.01 µM

CCOC(=O)N1CCC2(CC1)C[C@H](NC(=O)c1cccc3cn(COP(=O)(O)O)nc13)c1cc(Br)ccc1O2
F [4]: 95% | F [5]: 91% | solubility [6]: > 1000 µg/mL | F [7]: 65%

CCOC(=O)N1CCC2(CC1)C[C@H](NC(=O)c1cccc3c1OCO3)c1cc(Br)ccc1O2
CC50 at 48 h [1]: > 10 µM

CCOC(=O)N1CCC2(CC1)C[C@H](NC(=O)c1ccccc1NC(=O)C(F)(F)F)c1cc(Br)ccc1O2
CC50 at 48 h [1]: > 10 µM

CCOC(=O)N1CCC2(CC1)C[C@H](NC(=O)c1cccc3[nH]c(=O)[nH]c13)c1cc(Br)ccc1O2
CC50 at 48 h [1]: > 10 µM

CCOC(=O)N1CCC2(CC1)C[C@H](NC(=O)c1cccc3nc[nH]c13)c1cc(Br)ccc1O2
CC50 at 48 h [1]: > 10 µM

CC(C)OC(=O)N1CCC2(CC1)C[C@H](NC(=O)c1cccc3cn[nH]c13)c1cc(Br)ccc1O2
CC50 at 48 h [1]: > 10 µM

CC(C)CN(CC(C)C)c1ccc([C@H](C)CC(=O)O)cc1Nc1nc(C(F)(F)F)ns1
Activity [8]: inactive

CCOC(=O)N1CCC2(CC1)C[C@H](NC(=O)c1cccc3cn[nH]c13)c1ccccc1O2
CC50 at 48 h [1]: > 10 µM

CCOC(=O)N1CCC2(CC1)C[C@H](NC(=O)c1cccc3cn[nH]c13)c1cc(C#N)ccc1O2
CC50 at 48 h [1]: > 10 µM

CCOC(=O)N1CCC2(CC1)C[C@H](NC(=O)c1cccc3cc[nH]c13)c1cc(Br)ccc1O2
CC50 at 48 h [1]: > 10 µM

CCOC(=O)N1CCC2(CC1)C[C@H](NC(=O)c1cccc3cn[nH]c13)c1nc(OC)ccc1O2
CC50 at 48 h [1]: > 10 µM | IC50 [2]: 0.0064 µM

CCOC(=O)N1CCC2(CC1)C[C@H](NC(=O)c1ccccc1O)c1cc(Br)ccc1O2
CC50 at 48 h [1]: > 10 µM

CCOC(=O)N1CCC2(CC1)C[C@H](NC(=O)c1cccc3c1NC(=O)CO3)c1cc(Br)ccc1O2
CC50 at 48 h [1]: > 10 µM

CCOC(=O)N1CCC2(CC1)C[C@H](NC(=O)c1cccc3nn[nH]c13)c1cc(Br)ccc1O2
CC50 at 48 h [1]: > 10 µM

CCOC(=O)N1CCC2(CC1)C[C@H](NC(=O)c1cccc3[nH]ncc13)c1cc(Br)ccc1O2
CC50 at 48 h [1]: > 10 µM

CC(C)(C)OC(=O)N1CCC2(CC1)C[C@H](NC(=O)c1cccc3cn[nH]c13)c1cc(Br)ccc1O2
CC50 at 48 h [1]: > 10 µM

CCOC(=O)N1CCC2(CC1)C[C@H](NC(=O)c1cccc3ocnc13)c1cc(Br)ccc1O2
CC50 at 48 h [1]: > 10 µM

CCOC(=O)N1CCC2(CC1)C[C@H](NC(=O)c1cccc3cn(COP(=O)(O)O)nc13)c1cc(Br)ccc1O2.NC(CO)(CO)CO.NC(CO)(CO)CO
F [9]: 32% | Activity [10]: Non-Toxic | Activity [11]: Non-Toxic | AUCt [12]: 8606 ng·h/mL | F [13]: 21% | inhibition (INH) (Homo sapiens): 90% | F [14]: 37% | F [15]: 33% | solubility thermodynamic [16]: > 1000 µg/mL | F [17]: 31% | F [18]: 45% | F [19]: 24%

CCOC(=O)N1CCC2(CC1)C[C@H](NC(=O)c1cccc3cn[nH]c13)c1cc(OC)ccc1O2
CC50 at 48 h [1]: > 10 µM

CCOC(=O)N1CCC2(CC1)C[C@H](NC(=O)c1cccc3c1NC(=O)C3)c1cc(Br)ccc1O2
CC50 at 48 h [1]: > 10 µM

CCOC(=O)N1CCC2(CC1)C[C@H](NC(=O)c1cccc3cn[nH]c13)c1cc(Br)ccc1O2
bioavailability [20]: 3% | bioavailability [21]: 11% | CL [22]: 14% | clearance [3]: 10 mL/min/kg | clearance [23]: 11.7 mL/min/kg | bioavailability [24]: 6% | AUC(0-t) [25]: 44.7 ng·h/mL | CL [26]: 8% | clearance [27]: 6.1 mL/min/kg | solubility thermodynamic [16]: 18.4 µg/mL (≈ 35.8 µM) | bioavailability [28]: 0.2% | CC50 at 48 h [1]: > 10 µM | bioavailability [29]: 7% | CL [30]: 15%

CCOC(=O)N1CCC2(CC1)C[C@H](NC(=O)c1cccc3cn[nH]c13)c1cc(Br)ncc1O2
CC50 at 48 h [1]: > 10 µM | IC50 [2]: 0.021 µM

CCOC(=O)N1CCC2(CC1)C[C@H](NC(=O)c1cccc3c1NC(=O)C3=O)c1cc(Br)ccc1O2
CC50 at 48 h [1]: > 10 µM

NS(=O)(=O)NCCNc1nonc1/C(=N/O)Nc1ccc(F)c(Br)c1
Activity [8]: inactive

CCOC(=O)N1CCC2(CC1)CC(NC(=O)c1cccc3cn[nH]c13)c1ccccc1O2 (racemic)
CC50 at 48 h [1]: > 10 µM

CCOC(=O)N1CCC2(CC1)CC(NC(=O)c1cccc3cc[nH]c13)c1ccccc1O2 (racemic)
CC50 at 48 h [1]: > 10 µM
